Marks after values point to notes of the source that are not given here.
Tests used:
C. tropicalis = assay: Toxicity tests of additional substrates (absorbance at 600 nm); type: cell-based; settings: for Absorbance at 600 nm: 24 hours, added without solvent
Description: Additional substrates were to be tested for bioconversion following a slightly different protocol than the one noted above in Example 3. Those substrates also had to be tested for toxicity similar to the test described in Example 2, to determine the highest concentration at which a substrate could be added to a culture broth without being toxic, inhibiting growth, or interfering with the bioconversion process. C. tropicalis was grown in the presence of the substrate at three different concentrations and growth was monitored spectrophotometrically. In contrast to Example 2, all test substrates were added directly to the culture medium without dissolving in solvent. The tests were completed as follows:
On the first day, H5343 was grown in YPD medium (25.0 ml seed culture) overnight on a rotary shaker at 30° C. and 250 rpm. The next day 1.0 ml of the seed culture was used to inoculate a new flask of 50 ml YPD. This culture was grown overnight on a rotary shaker at 30° C. and 250 rpm. […]
Two control flasks were each inoculated with H5343 in 25 ml YPD. All flasks were incubated on a rotary shaker at 30° C. and 250 rpm.
After 24 hours incubation, the absorbance at 600 nm of the test and control flask cultures was determined, using uninoculated YPD broth as blank. Cultures were diluted so that the OD^600 nm measured between 0.15 and 0.3.
For strongly inhibitory substrates, a concentration of 0.1-0.2% was chosen for the bioconversion tests.

[1] = test system: C. tropicalis strain H5343; assay: Toxicity tests of substrates (growth by absorbance at 600 nm, streak plates); type: cell-based; settings: for ABS 600.0 nm: 48 h, 30° C., dilution in YPD 1:100
Description: The toxicity test used here was similar to that used for the solvents described in Example 1. The goal was to determine the highest concentration at which a substrate could be added to a culture broth without being toxic, inhibiting growth, or interfering with the bioconversion process. C. tropicalis strain H5343 was grown in the presence of the substrate at different concentrations and growth was monitored spectrophotometrically. In order to determine if the substrate was lethal or was simply inhibiting growth, the cultures were examined under the microscope and streak plates of YPD and LB agar were prepared. Contamination of the culture with an unwanted organism could also be detected using this approach.
6 ml was transferred to the first tube and 3 ml to the rest. 1% substrate was added to the first tube and then serially diluted to give concentrations from 1% to 0.015%. Since the last tube was initially empty, the concentration in the last two tubes was the same. […] As a growth-control one culture without substrate was inoculated.
To determine if contamination had occurred, each culture was examined under the microscope and streak plates of both YPD and LB were made from the 1% and the inoculated 0.015% tube.

[2] = substrate concentration 0.01563%
[3] = substrate concentration 0.0313%

Row | Structure (SMILES) | Absorbance at 600 nm (C. tropicalis; substrate concentration 0.1%) | Absorbance at 600 nm (C. tropicalis; substrate concentration 0.5%) | Absorbance at 600 nm (C. tropicalis; substrate concentration 1.0%) | ABS 600.0 nm [1, 2] | ABS 600.0 nm [1, 3] | ABS 600.0 nm ([1]; substrate concentration 0.063%) | ABS 600.0 nm ([1]; substrate concentration 0.13%) | ABS 600.0 nm ([1]; substrate concentration 0.25%) | ABS 600.0 nm ([1]; substrate concentration 0.5%) | ABS 600.0 nm ([1]; substrate concentration 1%) | Absorbance at 600 nm (C. tropicalis; substrate concentration 0.06%) | Absorbance at 600 nm (C. tropicalis; substrate concentration 0.3%) | Absorbance at 600 nm (C. tropicalis; substrate concentration 0.6%) | Toxic at (concentration) (C. tropicalis; Phase II screening summary) | Toxic at (concentration) ([1]; Phase I screening summary)
1 | CCCCCCCCCCCCCCC(O)CO (centres unmarked) [1,2-Hexadecanediol] | 3.103 | 3.033 | 2.013 | – | – | – | – | – | – | – | – | – | – | – | –
2 | CCCCCCCCCCCCO [1-Dodecanol] | – | – | – | 0.000 | 0.000 | 0.000 | 0.004 | 0.032** | 0.013** | 0.267** | – | – | – | – | –
3 | C=CCCCCCCCCCCCCCC [1-Hexadecene] | 38.99 | 35.33 | 37.93 | – | – | – | – | – | – | – | – | – | – | – | –
4 | C=CCCCCCCCCCCCCCCCC [1-Octadecene] | 34.93 | 36.33 | 34.7 | – | – | – | – | – | – | – | – | – | – | – | –
5 | CCCCCCC(CO)CCCC (centres unmarked) [2-Butyl-1-octanol] | 10.53 | 8.973 | 6.213 | – | – | – | – | – | – | – | – | – | – | – | –
6 | CCCCC(CC)C(=O)O (centres unmarked) [2-Ethylhexanoic acid] | – | – | – | 0.099 | 0.051 | 0.000 | 0.000 | 0.000 | 0.000 | 0.000 | – | – | – | – | –
7 | CCCCCCCCCC(CCCCCCC)C(=O)O (centres unmarked) [2-Heptylundecanoic acid] | – | – | – | 0.082 | 0.077 | 0.077 | 0.043 | – | 0.048 | 0.268 | – | – | – | – | –
8 | CCCCCCCCC(CCCCCC)C(=O)O (centres unmarked) [2-Hexydecanoic acid, 2-hexyldecanoic acid] | 27.73 | 35.33 | 41.53 | – | – | – | – | – | – | – | – | – | – | – | –
9 | CCCCC(=O)C(C)C [2-Methyl-3-heptanone] | – | – | – | – | – | – | – | – | – | – | 19.2 | 0.099 | 0.125 | – | –
10 | CCCCCCC(C)O (centres unmarked) [2-Octanol] | 0.250 | 0.235 | 0.285 | – | – | – | – | – | – | – | – | – | – | Toxic at 0.1% | –
11 | CCCCC(CC)C1OCCN1CCCC (centres unmarked) [3-Butyl-(ethylpentyl)oxazolidine, 3-Butyl-2(1-ethylpentyl)oxazolidine] | – | – | – | – | – | – | – | – | – | – | 12.5 | 0.245 | 1.18 | – | –
12 | CCCCCCc1ccsc1 [3-Hexylthiophene] | 0.933 | 1.033 | 1.223 | – | – | – | – | – | – | – | – | – | – | – | –
13 | CCCCCC#CCCCCC [6-Dodecyne] | – | – | – | 0.125 | 0.083 | 0.074 | 0.071 | 0.073 | 0.071 | 0.066 | – | – | – | – | –
14 | CCCCCC(O)CCCCC [6-Undecanol] | – | – | – | 0.000** | 0.000** | 0.000** | 0.000** | 0.000** | 0.000** | 0.000** | – | – | – | – | –
15 | CCCCCCCCC(=O)CCCCCCCC [9-Heptadecanone] | – | – | – | 0.100 | 0.120 | 0.064 | 0.103 | 0.120 | 0.073 | 0.004** | – | – | – | – | –
16 | CCCCCCC(O)CCCCCCCCCCC(=O)O (centres unmarked) [12-Hydroxystearic acid] | – | – | – | – | – | – | – | – | – | 0.120 | – | – | – | – | –

Row | Structure (SMILES) | Absorbance at 600 nm (C. tropicalis; substrate concentration 0.1%) | Absorbance at 600 nm (C. tropicalis; substrate concentration 0.5%) | Absorbance at 600 nm (C. tropicalis; substrate concentration 1.0%) | ABS 600.0 nm [1, 2] | ABS 600.0 nm [1, 3] | ABS 600.0 nm ([1]; substrate concentration 0.063%) | ABS 600.0 nm ([1]; substrate concentration 0.13%) | ABS 600.0 nm ([1]; substrate concentration 0.25%) | ABS 600.0 nm ([1]; substrate concentration 0.5%) | ABS 600.0 nm ([1]; substrate concentration 1%) | Absorbance at 600 nm (C. tropicalis; substrate concentration 0.06%) | Absorbance at 600 nm (C. tropicalis; substrate concentration 0.3%) | Absorbance at 600 nm (C. tropicalis; substrate concentration 0.6%) | Toxic at (concentration) (C. tropicalis; Phase II screening summary) | Toxic at (concentration) ([1]; Phase I screening summary)
17 | CCCCC1CCCCC1 [Butylcyclohexane] | 22.03 | 21.13 | 20.33 | – | – | – | – | – | – | – | – | – | – | – | –
18 | CCCCC(C(=O)O)C(=O)O [Butylmalonic Acid] | 27.43 | 27.13 | 8.53 | – | – | – | – | – | – | – | – | – | – | – | –
19 | CCCC[S+]([O-])CCCC [Butylsulfoxide, dibutylsulfoxide] | 15.63 | 11.37 | 5.81 | – | – | – | – | – | – | – | – | – | – | – | –
20 | C=CCCCCCCCCCC [C12 a-Olefin] | – | – | – | 0.077 | 0.119 | 0.119 | 0.082 | 0.080 | 0.080 | 0.082 | – | – | – | – | –
21 | C=CCCCCCCCCCCCC [C14 a-Olefin, 1-tetradecene] | – | – | – | 0.061 | 0.084 | 0.085 | 0.097 | 0.115 | 0.084 | 0.087 | – | – | – | – | –
22 | C=CCCCCCCCCCC [Dodecene] | – | – | – | 0.088 | 0.055 | 0.079 | 0.050 | 0.053 | 0.032 | 0.026 | – | – | – | – | –
23 | CCCCCCCCCCCCN [Dodecyclamine, Dodecylamine] | – | – | – | 0.000 | 0.000 | 0.000 | 0.000 | 0.000 | 0.000 | 0.000 | – | – | – | – | Toxic at 0.01%
24 | CCCCCCCC/C=C\CCCCCCCCO [HD-Ocenol, oleyl alcohol] | – | – | – | 0.093 | 0.087 | 0.076 | 0.115 | 0.097 | 0.085 | 0.087 | – | – | – | – | –
25 | CCCCCCCCCCCCCCCCOC(C)=O [Hexadecyl acetate] | – | – | – | 0.110 | 0.104 | 0.089 | 0.083 | 0.110 | 0.103 | 0.155 | – | – | – | – | –
26 | CCCCCCCCCCCCCCCCOC(=O)CCCCCCCC [Hexadecyl pelargonate] | – | – | – | 0.112 | 0.095 | 0.075 | 0.083 | 0.103 | 0.102 | 0.080 | – | – | – | – | –
27 | C=C[C@](C)(O)CC[C@@H]1[C@@]2(C)CCCC(C)(C)[C@@H]2CC[C@@]1(C)O [Indu-Extrakt-sclareol, sclareol] | – | – | – | 0.083 | 0.100 | 0.157 | 0.106 | 0.110 | 0.092 | 0.083 | – | – | – | – | –
28 | C=C(C)[C@H]1CC=C(C)CC1 [R(+) limonene] | – | – | – | 0.123 | 0.117 | 0.106 | 0.007 | 0.000 | 0.000 | 0.000 | – | – | – | – | –
29 | C=C(C)[C@@H]1CC=C(C)CC1 [S(−) limonene] | – | – | – | 0.104 | 0.094 | 0.011 | 0.002 | 0.000 | 0.002 | 0.002 | – | – | – | – | –
30 | C/C=C/CCCCCC [trans-2-nonene] | – | – | – | 0.112 | 0.100 | 0.105 | 0.066 | 0.000 | 0.000 | 0.000 | – | – | – | – | –
31 | CCCCCC/C=C/CCCCCC [trans-7-tetradecene] | – | – | – | 0.117 | 0.106 | 0.112 | 0.104 | 0.103 | 0.107 | 0.095 | – | – | – | – | –

Source: patent publication US7405063B2, “Biooxidation capabilities of Candida sp” (Cognis Corporation, priority 2000, dated 2008)
